Data taken from patent US8361971B2, “Tablet formulation of ezatiostat” (Telik, Inc., priority 2010, dated 2013).
Blank lines part the entries; values can stand above or below the molecule they belong to.

Columns and labels:
Type in all cases: physicochemical
[1] = Assay and impurities by HPLC of tablets on storage; set-up: key to Individual Impurities RRT = 0.74 / TLK 236 RRT = 0.88 / Individual Impurities RRT = 0.96 / Total impurities: impurity content in %; details: 6 Month at 40° C./75% RH without desiccant, hydrochloride
[2] = X-ray diffraction, polymorphic form in tablets; details: for polymorphic conversion on storage: 40° C. and 75% RH without a desiccant, form D 6 months, form E 3 months; for X-ray Diffraction: tablets
Method: X-ray powder diffraction (XRPD) analyses were performed on a Shimadzu XRD-6000 X-ray powder diffractometer using Cu Kα radiation from a long fine focus X-ray tube, operated at 40 kV, 40 mA. The divergence and scattering slits were set at 1° and the receiving slit was set at 0.15 mm. Diffracted radiation was detected by a NaI scintillation detector. A θ-2θ continuous scan at 3°/min (0.4 sec/0.02° step) from 2.5°-40° 2θ was used. A silicon standard was analyzed to check alignment of the instrument. Data were collected and analyzed using XRD-6000 v.4.1 software.
Stress experiments: solids were stressed under different temperature and/or relative humidity (RH) environments for a measured time period. Specific RH values were achieved by placing the sample inside sealed chambers containing saturated salt solutions. Samples were analyzed by XRPD immediately after removal from the stress environment.
(§1) As described above, form E converts to form B simply during tableting.
(§2) Tablets of ansolvate form D, were packaged with and without desiccant (Sorb-It Cannister, 1 gram). Fifty tablets were packaged in a round, white 1500 mL bottle with a screw cap over an induction seal. Impurities were assayed by HPLC. When stored at 25° C./60% RH with desiccant for 3 months, no increase in total impurities was observed. When stored at 40° C./75% RH with desiccant for 3 months, total impurities increased only by 0.3%. When stored at 40° C./75% RH without desiccant for 3 months, total impurities still increased by 1.1%. As tabulated below, the presence of desiccant appears to further increase the stability of the ansolvate form D. Even though the dissolution rate of tablets containing polymorph D from one batch was below specification (<70%) at an initial test as well as after 3 months at 25° C./60% RH with desiccant, the subsequent batches met the required specification.

[3] = Description (appearance) of tablets on storage
Method: as §2

[4] = Water content of tablets on storage
Method: Karl Fischer analyses for water determination were performed on a Mettler Toledo DL39 Karl Fischer titrator. About 10-15 mg of sample was placed in the KF titration vessel containing approximately 100 mL of Hydranal®—Coulomat AD reagent and mixed for 60 seconds to ensure dissolution. The dissolved sample was then titrated by means of a generator electrode which produces iodine by electrochemical oxidation. […]
as §2

[5] = Assay and impurities by HPLC of tablets on storage; set-up: key to Individual Impurities RRT = 0.74 / Individual Impurities RRT = 0.83 / TLK 236 RRT = 0.88 / Individual Impurities RRT = 0.94 / Individual Impurities RRT = 0.96 / Total impurities / Individual Impurities RRT = 0.80 / Individual Impurities RRT = 0.81 / Individual Impurities RRT = 0.86 / Individual Impurities RRT = 0.99: impurity content in %
Excerpt: As used herein, “impurity” refers to one or more of: TLK 236, another polymorphic form of ezatiostat hydrochloride including without limitation form A, B, C, E, or F, and any other compound other than ezatiostat hydrochloride ansolvate, which may be identified by HPLC. TLK 236 is a monoester derived from the partial hydrolysis of ezatiostat where the phenyl glycine moiety remains esterified.
as §1, §2

[6] = Tablet dissolution (Q at 45 min); details: for Dissolution, Mean at 45 min: tablets
Excerpt: Without being bound by theory, a higher dissolution rate relates to a higher amount of the active agent in the gastric fluid, which in turn relates to higher bioavailability of the active agent. A high bioavailability is desired, for example and without limitation, for reducing inter patient variability of drug exposure for a orally administered agent such as ezatiostat hydrochloride. […] The aqueous solubility can be measured in a variety of aqueous solvents, including without limitation, water, 0.9% aqueous NaCl, 5% dextrose for injection, phosphate buffered saline, and generally aqueous solutions having a pH of less than about 5. Such solvents may include suitable buffers and other salts. […]
as §2

[7] = 3 Month at 25° C./60% RH with desiccant
[8] = 3 Month at 40° C./75% RH with desiccant
[9] = 3 Month at 40° C./75% RH without desiccant, hydrochloride
[10] = 3 Month at 40° C./75% RH without desiccant, listed as Form D Ansolvate, hydrochloride
[11] = 6 Month at 40° C./75% RH without desiccant, hydrochloride
[12] = Initial, listed as Form D Ansolvate, hydrochloride
[13] = 3 Month at 40° C./75% RH without desiccant

Assay (HPLC) [1]: 96.5 % Label Claim
Individual Impurities RRT = 0.59/0.62 [1]: 0.08
Individual Impurities RRT = 0.74 [1]: 0.20
Individual Impurities RRT = 0.96 [1]: 0.23
TLK 236 RRT = 0.88 [1]: 2.07
Total impurities [1]: 2.7
X-ray Diffraction [2, 7]: Polymorph D
X-ray Diffraction [2, 8]: Polymorph D
X-ray Diffraction [2, 9]: Polymorph D
X-ray Diffraction [2, 10]: Polymorph D
X-ray Diffraction [2, 11]: Polymorph D
X-ray Diffraction ([2]; Initial, hydrochloride): Polymorph D
X-ray Diffraction [2, 12]: Polymorph D
Description [3, 7]: White round
Description [3, 8]: Off-white
Description [3, 13]: Off-white
Description [3, 11]: Brown round
Description ([3]; Initial): White round
Water Content [4, 7]: 0.5%
Water Content [4, 8]: 0.6%
Water Content [4, 9]: 0.8%
Water Content [4, 10]: 0.8%
Water Content [4, 11]: 0.8%
Water Content ([4]; Initial, hydrochloride): 0.9%
Water Content [4, 12]: 0.9%
Assay (HPLC) [5, 7]: 99.7 % Label Claim
Individual Impurities RRT = 0.74/0.72 [5, 7]: 0.16
Individual Impurities RRT = 0.96 [5, 7]: 0.19
TLK 236 RRT = 0.88 [5, 7]: 0.34
Total impurities [5, 7]: 0.7
Assay (HPLC) [5, 8]: 100.8 % Label Claim
Individual Impurities RRT = 0.74/0.72 [5, 8]: 0.16
Individual Impurities RRT = 0.83 [5, 8]: 0.09
Individual Impurities RRT = 0.94 [5, 8]: 0.06
Individual Impurities RRT = 0.96 [5, 8]: 0.19
TLK 236 RRT = 0.88 [5, 8]: 0.53
Total impurities [5, 8]: 1.0
Individual Impurities RRT = 0.74/0.72 [5, 13]: 0.18
Assay (HPLC) [5, 9]: 100.3 % Label Claim
Individual Impurities RRT = 0.74 [5, 9]: 0.21
Individual Impurities RRT = 0.83 [5, 9]: 0.07
Individual Impurities RRT = 0.94 [5, 9]: 0.07
Individual Impurities RRT = 0.96 [5, 9]: 0.19
TLK 236 RRT = 0.88 [5, 9]: 1.33
Total impurities [5, 9]: 1.9
Assay (HPLC) [5, 10]: 100.3 % Label Claim
Individual Impurities RRT = 0.83 [5, 10]: 0.08
Individual Impurities RRT = 0.94 [5, 10]: 0.07
Individual Impurities RRT = 0.96 [5, 10]: 0.18
TLK 236 RRT = 0.88 [5, 10]: 1.3
Total impurities [5, 10]: 1.8
Individual Impurities RRT = 0.83 [5, 11]: 0.09
increase in total impurities ([5]; 25° C./60% RH with desiccant for 3 months): no increase
increase in total impurities ([5]; 40° C./75% RH with desiccant for 3 months): 0.3%
increase in total impurities ([5]; 40° C./75% RH without desiccant for 3 months): 1.1%
Individual Impurities RRT = 0.74/0.72 ([5]; Initial): 0.21
Assay (HPLC) ([5]; Initial, hydrochloride): 101.4 % Label Claim
Individual Impurities RRT = 0.74 ([5]; Initial, hydrochloride): 0.21
Individual Impurities RRT = 0.96 ([5]; Initial, hydrochloride): 0.18
TLK 236 RRT = 0.88 ([5]; Initial, hydrochloride): 0.35
Total impurities ([5]; Initial, hydrochloride): 0.7
Assay (HPLC) [5, 12]: 101.4 % Label Claim
Individual Impurities RRT = 0.96 [5, 12]: 0.18
TLK 236 RRT = 0.88 [5, 12]: 0.35
Total impurities [5, 12]: 0.7
Dissolution, Mean at 45 min ([6]; 3 Month at 25° C./60% RH with desiccant, listed as Form D Ansolvate, hydrochloride): Mean = 46 % of label claim
Dissolution, Mean at 45 min ([6]; 3 Month at 25° C./60% RH with desiccant, listed as polymorph D, hydrochloride): < 70 % of label claim
Dissolution, Mean at 45 min [6, 8]: Mean = 76 % of label claim
Dissolution, Mean at 45 min [6, 9]: Mean = 88 % of label claim
Dissolution, Mean at 45 min [6, 10]: Mean = 88 % of label claim
Dissolution, Mean at 45 min [6, 11]: Mean = 81 % of label claim
Dissolution, Mean at 45 min ([6]; Initial, hydrochloride): Mean = 51 % of label claim
Dissolution, Mean at 45 min [6, 12]: Mean = 51 % of label claim
Dissolution, Mean at 45 min ([6]; Initial, listed as polymorph D, hydrochloride): < 70 % of label claim
Compound: CCOC(=O)[C@@H](N)CCC(=O)N[C@@H](CSCc1ccccc1)C(=O)N[C@@H](C(=O)OCC)c1ccccc1.Cl [Polymorph Form D, ezatiostat hydrochloride]
polymorphic conversion on storage ([2]; listed as ansolvate form D, hydrochloride): resistance to conversion to a solvate form
aqueous dissolution rate ([6]; as part of a tablet, measured in 0.1 molar HCl): higher aqueous dissolution rate than polymorphic form E

Assay (HPLC) [1]: 84.6 % Label Claim
Individual Impurities RRT = 0.59/0.62 [1]: 0.15
Individual Impurities RRT = 0.74 [1]: 0.51
Individual Impurities RRT = 0.96 [1]: 0.24
TLK 236 RRT = 0.88 [1]: 4.66
Total impurities [1]: 6.3
X-ray Diffraction [2, 9]: Polymorph B
X-ray Diffraction [2, 11]: Polymorph B
X-ray Diffraction ([2]; Initial, hydrochloride): Polymorph B
Description [3, 13]: Off-white
Description [3, 11]: Brown round
Description ([3]; Initial): White round
Water Content [4, 9]: 2.3%
Water Content [4, 11]: 2.3%
Water Content ([4]; Initial, hydrochloride): 3.5%
Individual Impurities RRT = 0.59/0.62 [5, 13]: 0.07
Individual Impurities RRT = 0.86 [5, 13]: 0.06
Assay (HPLC) [5, 9]: 90.3 % Label Claim
Individual Impurities RRT = 0.74 [5, 9]: 0.42
Individual Impurities RRT = 0.80 [5, 9]: 0.16
Individual Impurities RRT = 0.81 [5, 9]: 0.14
Individual Impurities RRT = 0.83 [5, 9]: 0.31
Individual Impurities RRT = 0.94 [5, 9]: 0.08
Individual Impurities RRT = 0.96 [5, 9]: 0.19
Individual Impurities RRT = 0.99 [5, 9]: 0.20
TLK 236 RRT = 0.88 [5, 9]: 3.45
Total impurities [5, 9]: 5.1
Individual Impurities RRT = 0.80 [5, 11]: 0.41
Individual Impurities RRT = 0.81 [5, 11]: 0.17
Individual Impurities RRT = 0.83 [5, 11]: 0.16
Individual Impurities RRT = 0.99 ([5]; Initial): 0.12
Assay (HPLC) ([5]; Initial, hydrochloride): 93.7 % Label Claim
Individual Impurities RRT = 0.74 ([5]; Initial, hydrochloride): 0.38
Individual Impurities RRT = 0.83 ([5]; Initial, hydrochloride): 0.34
Individual Impurities RRT = 0.96 ([5]; Initial, hydrochloride): 0.20
TLK 236 RRT = 0.88 ([5]; Initial, hydrochloride): 0.42
Total impurities ([5]; Initial, hydrochloride): 1.5
Dissolution, Mean at 45 min [6, 9]: Mean = 33 % of label claim
Dissolution, Mean at 45 min [6, 11]: Mean = 19 % of label claim
Dissolution, Mean at 45 min ([6]; Initial, hydrochloride): Mean = 46 % of label claim
Compound: CCOC(=O)[C@@H](N)CCC(=O)N[C@@H](CSCc1ccccc1)C(=O)N[C@@H](C(=O)OCC)c1ccccc1.Cl [Polymorph Form E, ezatiostat hydrochloride]
polymorphic conversion on storage ([2]; listed as solvate form E, hydrochloride): transforms into a mixture of form B and the ansolvate form D within 3 months
polymorphic conversion during tablet manufacture ([2]; during tablet manufacture, listed as solvate form E, hydrochloride): transforms almost entirely to form B crystals merely during tablet manufacture
